ChEMBL document CHEMBL3046086, “In-silico design, synthesis and evaluation of novel DNA-gyrase B inhibitors” (2013)

What was measured:
Staphylococcus aureus = assay: Antibacterial activity against Staphylococcus aureus assessed as growth inhibition at 1500 uM after 24 hr by agar well diffusion method; assay type: functional; conditions: read-out: IZ
Escherichia coli = assay: Antibacterial activity against Escherichia coli assessed as growth inhibition at 1500 uM after 24 hr by agar well diffusion method; assay type: functional; conditions: read-out: IZ

SMILES	zone of inhibition at 1500 µM (Staphylococcus aureus)	zone of inhibition at 1500 µM (Escherichia coli)
O=C(O)c1cn(C2CC2)c2cc(N3CCNCC3)c(F)cc2c1=O [CIPROFLOXACIN]	15 mm	
Cc1cc(=O)[nH]c2cc(Nc3ccc(C(=O)O)cn3)ccc12	3 mm	
Cc1cc(=O)[nH]c2cc(Nc3nccnc3C(=O)O)ccc12	7.5 mm	8 mm
Cc1cc(=O)[nH]c2cc(Nc3cnc(C(=O)O)cn3)ccc12	9 mm	8.5 mm
Cc1cc(=O)[nH]c2cc(Nc3ccc(C(=O)O)cc3)ccc12	13.5 mm	12.8 mm
Cc1cc(=O)[nH]c2cc(Nc3cccc(C(=O)O)c3)ccc12	7 mm	7 mm
Cc1cc(=O)[nH]c2cc(Nc3ncccc3C(=O)O)ccc12	5 mm	4.2 mm
Cc1cc(=O)[nH]c2cc(Nc3ccccc3C(=O)O)ccc12	8 mm	7 mm
Cc1cc(O)nc2cc(N)ccc12	5.5 mm	4 mm
Cc1cc(=O)[nH]c2cc(Nc3ccncc3C(=O)O)ccc12	9 mm	7 mm
